Some results are limits rather than exact numbers.

The target in assay [1] is Serine/threonine-protein kinase PLK2 (Homo sapiens, UniProt Q9NYY3). Description: Selectivity interaction (Upstate Kinase Profiler service (Millipore)) EUB0000056c PLK2. As to conditions: at 1 µM.
Assay [2] deals with Dual specificity tyrosine-phosphorylation-regulated kinase 1A (Homo sapiens, UniProt Q13627). The following applies: at 10 µM.
Assay [3] addresses T1, Mitogen-activated protein kinase 10 (Homo sapiens, UniProt P53779). As to the kind of experiment: Selectivity interaction (Millipore kinase profiler) EUB0000124b MAPK10. The following applies: at 10 µM.
The target in assay [4] is T2, Ephrin type-B receptor 4 (Homo sapiens) (UniProt P54760).
T2 sequence (whole entry): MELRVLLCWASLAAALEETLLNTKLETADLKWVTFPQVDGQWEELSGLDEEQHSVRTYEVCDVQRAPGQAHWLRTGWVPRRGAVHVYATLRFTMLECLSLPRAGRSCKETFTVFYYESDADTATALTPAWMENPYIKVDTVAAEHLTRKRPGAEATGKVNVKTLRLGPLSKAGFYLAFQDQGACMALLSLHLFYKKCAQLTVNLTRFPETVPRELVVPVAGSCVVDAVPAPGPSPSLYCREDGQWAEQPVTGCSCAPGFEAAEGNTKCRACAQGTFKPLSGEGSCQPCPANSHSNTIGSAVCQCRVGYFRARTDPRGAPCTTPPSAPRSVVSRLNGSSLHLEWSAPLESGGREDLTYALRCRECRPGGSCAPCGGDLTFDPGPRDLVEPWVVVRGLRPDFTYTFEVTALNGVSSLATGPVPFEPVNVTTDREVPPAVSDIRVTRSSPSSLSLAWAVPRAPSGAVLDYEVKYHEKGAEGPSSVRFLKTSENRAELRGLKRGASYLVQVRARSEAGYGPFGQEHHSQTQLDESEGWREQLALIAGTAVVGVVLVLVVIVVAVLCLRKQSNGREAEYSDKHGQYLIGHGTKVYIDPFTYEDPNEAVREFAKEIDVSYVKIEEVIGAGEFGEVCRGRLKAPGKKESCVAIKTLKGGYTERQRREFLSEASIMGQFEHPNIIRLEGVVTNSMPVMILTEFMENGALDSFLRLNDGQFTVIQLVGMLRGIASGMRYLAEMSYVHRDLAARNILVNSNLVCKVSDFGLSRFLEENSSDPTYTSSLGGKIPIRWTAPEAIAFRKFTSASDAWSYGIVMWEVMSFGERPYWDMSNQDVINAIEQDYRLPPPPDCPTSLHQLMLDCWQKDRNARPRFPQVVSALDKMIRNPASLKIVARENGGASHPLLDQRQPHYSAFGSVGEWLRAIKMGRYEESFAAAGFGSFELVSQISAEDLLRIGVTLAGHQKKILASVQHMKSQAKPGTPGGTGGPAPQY
As to the kind of experiment: Selectivity interaction (KinomeScan (DiscoverX)) EUB0001049a EPHB4. As to conditions: at 1 µM.

In assay [5] the target is T3, Myosin light chain kinase family member 4 (Homo sapiens) (UniProt Q86YV6).
T3 sequence (whole entry): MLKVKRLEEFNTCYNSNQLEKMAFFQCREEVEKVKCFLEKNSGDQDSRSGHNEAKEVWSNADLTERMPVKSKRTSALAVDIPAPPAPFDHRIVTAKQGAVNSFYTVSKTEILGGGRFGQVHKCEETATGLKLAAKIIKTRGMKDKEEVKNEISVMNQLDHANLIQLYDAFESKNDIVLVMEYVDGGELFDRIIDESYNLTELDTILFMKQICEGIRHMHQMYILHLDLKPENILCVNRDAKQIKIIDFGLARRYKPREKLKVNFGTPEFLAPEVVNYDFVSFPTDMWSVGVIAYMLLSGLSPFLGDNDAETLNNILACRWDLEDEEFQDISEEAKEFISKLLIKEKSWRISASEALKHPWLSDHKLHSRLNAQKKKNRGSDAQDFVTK
As to the kind of experiment: Selectivity interaction (KinomeScan (DiscoverX)) EUB0000655a MYLK4. The following applies: at 10 µM.

The target in assay [6] is Serine/threonine-protein kinase MRCK gamma (Homo sapiens) (UniProt Q6DT37). Description: Selectivity interaction (KinomeScan (DiscoverX)) EUB0000045b CDC42BPG.
Sequence of Serine/threonine-protein kinase MRCK gamma (Homo sapiens) (Q6DT37 whole entry): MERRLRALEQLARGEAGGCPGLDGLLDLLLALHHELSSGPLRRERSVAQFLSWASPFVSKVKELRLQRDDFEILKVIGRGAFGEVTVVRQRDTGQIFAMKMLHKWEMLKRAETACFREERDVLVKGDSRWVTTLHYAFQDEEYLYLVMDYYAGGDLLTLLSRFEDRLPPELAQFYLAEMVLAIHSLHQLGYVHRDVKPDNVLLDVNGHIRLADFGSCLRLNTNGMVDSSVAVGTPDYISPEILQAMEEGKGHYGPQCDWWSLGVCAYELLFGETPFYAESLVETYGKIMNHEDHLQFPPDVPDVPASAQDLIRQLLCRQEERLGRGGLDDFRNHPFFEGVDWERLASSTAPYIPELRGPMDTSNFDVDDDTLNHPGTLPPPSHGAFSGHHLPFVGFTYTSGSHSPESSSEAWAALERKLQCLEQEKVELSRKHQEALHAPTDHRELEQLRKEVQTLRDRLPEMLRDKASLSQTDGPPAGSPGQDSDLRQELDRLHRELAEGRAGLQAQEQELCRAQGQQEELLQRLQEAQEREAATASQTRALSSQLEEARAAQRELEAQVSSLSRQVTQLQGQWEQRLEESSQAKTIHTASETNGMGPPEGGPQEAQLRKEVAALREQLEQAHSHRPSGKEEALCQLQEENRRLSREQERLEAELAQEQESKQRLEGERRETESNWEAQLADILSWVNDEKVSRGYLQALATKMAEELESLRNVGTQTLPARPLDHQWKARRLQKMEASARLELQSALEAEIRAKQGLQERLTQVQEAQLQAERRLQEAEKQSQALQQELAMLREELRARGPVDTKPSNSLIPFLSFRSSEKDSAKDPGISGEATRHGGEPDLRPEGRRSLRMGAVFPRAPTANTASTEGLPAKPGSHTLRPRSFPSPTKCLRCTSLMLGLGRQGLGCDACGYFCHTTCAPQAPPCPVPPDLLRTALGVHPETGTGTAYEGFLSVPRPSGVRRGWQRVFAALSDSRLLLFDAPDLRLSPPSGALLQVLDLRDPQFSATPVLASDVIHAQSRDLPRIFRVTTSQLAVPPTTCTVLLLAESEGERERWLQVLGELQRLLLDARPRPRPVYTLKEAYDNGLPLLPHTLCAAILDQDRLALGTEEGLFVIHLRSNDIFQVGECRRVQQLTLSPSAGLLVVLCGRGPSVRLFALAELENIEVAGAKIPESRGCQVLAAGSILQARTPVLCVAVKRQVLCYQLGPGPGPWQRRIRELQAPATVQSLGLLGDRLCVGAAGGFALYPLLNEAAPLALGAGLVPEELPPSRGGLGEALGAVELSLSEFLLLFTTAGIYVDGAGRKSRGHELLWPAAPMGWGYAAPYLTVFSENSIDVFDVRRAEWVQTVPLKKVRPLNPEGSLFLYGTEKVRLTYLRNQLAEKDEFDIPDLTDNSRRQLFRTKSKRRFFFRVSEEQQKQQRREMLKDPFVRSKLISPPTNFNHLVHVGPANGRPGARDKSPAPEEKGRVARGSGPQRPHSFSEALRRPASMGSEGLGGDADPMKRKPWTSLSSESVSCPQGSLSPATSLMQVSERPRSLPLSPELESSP
In assay [7] the target is Serine/threonine-protein kinase PAK 6 (Homo sapiens) (UniProt Q9NQU5). As to the kind of experiment: Selectivity interaction (KinomeScan (DiscoverX)) EUB0000666a PAK6. The following applies: at 10 µM.
In assay [8] the target is T4, Serine/threonine-protein kinase Sgk1 (Homo sapiens) (UniProt O00141).
T4 sequence (whole entry): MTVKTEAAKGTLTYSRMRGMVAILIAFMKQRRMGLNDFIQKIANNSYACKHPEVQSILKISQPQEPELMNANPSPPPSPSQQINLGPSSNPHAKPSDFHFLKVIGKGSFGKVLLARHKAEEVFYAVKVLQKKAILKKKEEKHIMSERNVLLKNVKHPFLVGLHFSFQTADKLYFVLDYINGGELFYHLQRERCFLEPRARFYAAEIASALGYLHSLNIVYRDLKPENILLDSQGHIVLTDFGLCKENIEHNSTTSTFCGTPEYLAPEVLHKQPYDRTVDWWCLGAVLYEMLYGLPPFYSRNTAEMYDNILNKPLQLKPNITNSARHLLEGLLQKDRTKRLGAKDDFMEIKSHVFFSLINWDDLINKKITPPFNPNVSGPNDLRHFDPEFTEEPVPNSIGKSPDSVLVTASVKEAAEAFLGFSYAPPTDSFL
Description: Selectivity interaction (KinomeScan (DiscoverX)) EUB0000666a SGK1. The following applies: at 10 µM.

For assay [9], the target named is cAMP-dependent protein kinase catalytic subunit alpha (Homo sapiens, UniProt P17612). Description: Selectivity interaction (Kinase panel (Z-LYTE Assay)) EUB0001632a PRKACA. The following applies: at 10 µM.
For assay [10], the target named is Rho-associated protein kinase 2 (Homo sapiens, UniProt O75116). As to the kind of experiment: Selectivity interaction (Kinase panel (Z-LYTE Assay)) EUB0001632a ROCK2. As to conditions: at 10 µM.
Sequence of Rho-associated protein kinase 2 (O75116 whole entry, looked up): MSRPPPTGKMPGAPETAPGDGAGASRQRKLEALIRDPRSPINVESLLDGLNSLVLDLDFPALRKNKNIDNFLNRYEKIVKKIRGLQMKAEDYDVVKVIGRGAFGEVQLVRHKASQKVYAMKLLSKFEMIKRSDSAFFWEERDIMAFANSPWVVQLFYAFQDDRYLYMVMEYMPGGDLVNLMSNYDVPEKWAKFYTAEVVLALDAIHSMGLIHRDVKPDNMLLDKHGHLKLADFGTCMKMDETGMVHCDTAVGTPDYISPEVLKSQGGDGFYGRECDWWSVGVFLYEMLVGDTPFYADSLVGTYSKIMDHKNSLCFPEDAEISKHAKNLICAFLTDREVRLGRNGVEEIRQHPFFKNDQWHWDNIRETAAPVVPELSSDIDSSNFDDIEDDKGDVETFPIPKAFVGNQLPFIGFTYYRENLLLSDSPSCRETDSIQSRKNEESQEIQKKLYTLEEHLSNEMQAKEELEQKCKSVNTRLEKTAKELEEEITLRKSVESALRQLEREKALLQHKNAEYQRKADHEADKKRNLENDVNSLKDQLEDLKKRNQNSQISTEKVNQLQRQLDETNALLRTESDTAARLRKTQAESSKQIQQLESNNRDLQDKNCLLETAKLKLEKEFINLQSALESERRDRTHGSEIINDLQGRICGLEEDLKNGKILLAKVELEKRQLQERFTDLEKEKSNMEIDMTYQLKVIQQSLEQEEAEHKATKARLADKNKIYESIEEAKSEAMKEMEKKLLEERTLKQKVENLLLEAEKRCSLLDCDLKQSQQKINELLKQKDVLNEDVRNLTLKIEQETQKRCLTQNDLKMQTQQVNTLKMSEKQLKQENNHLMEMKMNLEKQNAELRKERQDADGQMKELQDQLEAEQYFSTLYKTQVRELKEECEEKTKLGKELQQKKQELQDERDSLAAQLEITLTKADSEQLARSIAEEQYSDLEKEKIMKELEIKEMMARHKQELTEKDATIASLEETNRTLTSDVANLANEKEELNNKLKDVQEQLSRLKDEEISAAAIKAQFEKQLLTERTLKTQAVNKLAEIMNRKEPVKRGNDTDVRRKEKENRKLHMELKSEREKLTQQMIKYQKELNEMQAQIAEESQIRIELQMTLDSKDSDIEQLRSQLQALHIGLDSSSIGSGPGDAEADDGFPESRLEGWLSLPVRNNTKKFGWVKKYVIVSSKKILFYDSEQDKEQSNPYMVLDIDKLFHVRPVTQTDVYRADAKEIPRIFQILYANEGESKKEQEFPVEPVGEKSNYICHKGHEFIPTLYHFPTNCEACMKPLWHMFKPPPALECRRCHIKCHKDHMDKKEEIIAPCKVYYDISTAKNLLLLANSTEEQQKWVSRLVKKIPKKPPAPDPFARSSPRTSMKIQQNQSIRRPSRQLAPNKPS
For assay [11], the target named is MAP/microtubule affinity-regulating kinase 3 (Homo sapiens) (UniProt P27448). Description: Selectivity interaction (ActivX KiNativ screen (kinase selectivity in THP-1 cell lysates)) EUB0000639a MARK3. The following applies: lysate, at 0.2 µM. In kind it is subcellular.
Sequence of MAP/microtubule affinity-regulating kinase 3 (Homo sapiens) (P27448 whole entry, looked up): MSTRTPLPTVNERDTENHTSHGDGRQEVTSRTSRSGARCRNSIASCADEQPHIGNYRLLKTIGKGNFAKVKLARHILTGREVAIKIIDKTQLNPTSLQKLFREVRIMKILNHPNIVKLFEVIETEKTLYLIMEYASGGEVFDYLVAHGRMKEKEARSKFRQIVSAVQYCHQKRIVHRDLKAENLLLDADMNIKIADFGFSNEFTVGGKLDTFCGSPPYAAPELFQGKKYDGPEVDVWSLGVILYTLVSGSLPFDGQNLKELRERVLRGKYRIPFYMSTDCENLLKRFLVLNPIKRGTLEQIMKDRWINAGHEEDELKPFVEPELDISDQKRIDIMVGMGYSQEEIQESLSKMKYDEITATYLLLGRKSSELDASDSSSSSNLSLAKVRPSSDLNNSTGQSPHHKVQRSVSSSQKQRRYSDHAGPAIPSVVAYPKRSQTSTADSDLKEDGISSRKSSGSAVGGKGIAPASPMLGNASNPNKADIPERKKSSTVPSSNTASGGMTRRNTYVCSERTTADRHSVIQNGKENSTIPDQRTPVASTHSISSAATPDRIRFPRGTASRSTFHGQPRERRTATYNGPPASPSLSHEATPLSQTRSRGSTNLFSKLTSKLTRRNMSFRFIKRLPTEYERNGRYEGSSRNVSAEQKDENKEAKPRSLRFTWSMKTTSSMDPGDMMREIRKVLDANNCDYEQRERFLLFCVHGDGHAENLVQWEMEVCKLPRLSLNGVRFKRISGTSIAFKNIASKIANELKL
The target of assay [12] is T1, Mitogen-activated protein kinase 10. Description: Selectivity interaction (Kinase panel (Invitrogen)) EUB0000639a MAPK10. The following applies: at 200 nM.
Assay [13] concerns the target Calcium/calmodulin-dependent protein kinase type II subunit beta (Homo sapiens) (UniProt Q13554). Description: Selectivity interaction (ActivX KiNativ screen (kinase selectivity in THP-1 cell lysates)) EUB0000639a CAMK2B. It is filed as subcellular. The following applies: lysate, at 0.2 µM.
The target in assay [14] is Voltage-gated inwardly rectifying potassium channel KCNH2 (Homo sapiens, UniProt Q12809). As to the kind of experiment: Selectivity interaction (HERG dofetilide binding assay, human recombinant ) EUB0000877a KCNH2.
Assay [15] deals with Casein kinase II subunit alpha (Homo sapiens, UniProt P68400). As to conditions: at 10 µM.

T1 sequence (P53779 whole entry): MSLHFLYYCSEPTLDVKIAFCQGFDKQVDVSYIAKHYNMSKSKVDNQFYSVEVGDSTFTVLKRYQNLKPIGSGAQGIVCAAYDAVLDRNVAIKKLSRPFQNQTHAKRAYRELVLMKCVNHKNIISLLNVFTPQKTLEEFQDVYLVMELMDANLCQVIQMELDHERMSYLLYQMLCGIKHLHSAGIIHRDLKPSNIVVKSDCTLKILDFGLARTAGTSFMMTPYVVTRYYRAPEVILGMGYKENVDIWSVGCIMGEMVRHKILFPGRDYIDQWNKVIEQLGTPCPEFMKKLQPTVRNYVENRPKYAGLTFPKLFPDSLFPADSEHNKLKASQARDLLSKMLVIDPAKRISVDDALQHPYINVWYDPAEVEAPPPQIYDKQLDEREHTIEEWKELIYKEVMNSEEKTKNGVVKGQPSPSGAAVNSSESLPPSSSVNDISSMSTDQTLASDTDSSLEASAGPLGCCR
Sequence of Calcium/calmodulin-dependent protein kinase type II subunit beta (Homo sapiens) (Q13554 whole entry): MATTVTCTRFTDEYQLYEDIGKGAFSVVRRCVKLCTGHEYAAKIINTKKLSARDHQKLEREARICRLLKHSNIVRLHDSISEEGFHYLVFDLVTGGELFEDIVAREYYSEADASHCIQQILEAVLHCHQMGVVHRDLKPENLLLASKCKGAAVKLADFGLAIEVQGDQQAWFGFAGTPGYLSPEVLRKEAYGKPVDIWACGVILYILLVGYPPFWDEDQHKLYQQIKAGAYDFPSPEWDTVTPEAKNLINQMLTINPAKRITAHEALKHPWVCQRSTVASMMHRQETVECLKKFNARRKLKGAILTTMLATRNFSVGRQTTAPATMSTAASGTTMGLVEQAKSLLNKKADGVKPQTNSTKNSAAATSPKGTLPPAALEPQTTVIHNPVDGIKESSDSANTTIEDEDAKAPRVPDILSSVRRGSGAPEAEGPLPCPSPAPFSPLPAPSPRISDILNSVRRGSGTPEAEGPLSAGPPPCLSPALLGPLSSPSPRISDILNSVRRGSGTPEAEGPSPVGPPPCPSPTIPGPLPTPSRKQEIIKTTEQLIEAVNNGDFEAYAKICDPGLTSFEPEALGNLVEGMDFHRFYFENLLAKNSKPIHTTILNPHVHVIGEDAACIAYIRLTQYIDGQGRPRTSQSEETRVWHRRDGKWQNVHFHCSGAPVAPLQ

`Cc1ccc(-c2ccc3c(ccc4sc5c(c43)NC[C@@H](C)NC5=O)n2)cn1`: the % of inhibition in assay [1] is -19%.
As to `Cc1cc([C@@H](C)Nc2ccccc2C(=O)O)c2nc(N3CCOCC3)cc(=O)n2c1` [AZD-6482], the % of control in assay [2] turned out to be 90%.
In [3], `CC(=O)Nc1cccc(-n2c(=O)n(C3CC3)c(=O)c3c(Nc4ccc(I)cc4F)n(C)c(=O)c(C)c32)c1` yielded a % of control of 76%.
Turning to `COc1cc(Nc2nc(C)cc(-c3cnn4nc(OC)ccc34)n2)cc(C(F)(F)F)c1`, in assay [4], the % of control came to 94%.
In [5], `CN(C)CCOc1ccc(-c2nc(-c3ccncc3)c(-c3ccc4c(c3)CC/C4=N\O)[nH]2)cc1` had a % of control of 98%.
As for `C=CC(=O)Nc1cc(-n2c(=O)ccc3cnc4ccc(-c5ccc(NS(C)(=O)=O)cc5)cc4c32)ccc1C`, the values for the % of control in [6] (at 1 µM) and in assay [6] (at 10 µM) were 100% and 90%, respectively.
On to `O=C(NOC[C@H](O)CO)c1ccc(F)c(F)c1Nc1ccc(I)cc1F`, for which the % of control in assay [7] and in assay [8] was 100% throughout.
`Cn1cc(-n2cnc3c(NCc4nc5cc(Cl)c(Cl)cc5[nH]4)nc(N4CCOCC4)nc32)cn1`: the figures for the % of control in assay [9] and in assay [10] were 1.33% and 3.57%, respectively.
On to `CC[C@@H]1[C@H](F)C(=O)N[C@@H]1COc1nccc2cc(C(N)=O)c(OC)cc12` [ZIMLOVISERTIB], for which the figures for the % of inhibition in assay [11], in assay [12] and in [13] were 2.7%, 6.65% and 4.9%, respectively.
With `CCC(=O)N1CC[C@H](Nc2ncnc3c2CN(c2cnc(OC)c(C(F)(F)F)c2)CC3)C1` [LENIOLISIB], the IC50 in assay [14] is > 30 µM.
With `COCC(=O)NC/C=C/c1ccc2ncnc(Nc3ccc(Oc4ccc(C)nc4)c(C)c3)c2c1` [CP-724714], the % of control in assay [15] is 87%.

The values above are taken from ChEMBL document CHEMBL5465560, “Selectivity Literature for EUbOPEN Chemogenomic Library” (2024).
